Where “and” joins values, the source holds several entries; their conditions need not be identical. Equal entries are not always repeated. Where only a bound is given, the exact number is not on record here.

Consider 15 molecules from ChEMBL document CHEMBL4680313 (Bioorg Med Chem, 2021).

The target in test [1] is T1, 5-hydroxytryptamine receptor 2A (Homo sapiens, UniProt P28223).
Test [2] has as its target T2, D(2) dopamine receptor (Homo sapiens, UniProt P14416).
Another test has as its target T3, D(4) dopamine receptor (Homo sapiens, UniProt P21917).
T3 sequence (P21917 whole entry): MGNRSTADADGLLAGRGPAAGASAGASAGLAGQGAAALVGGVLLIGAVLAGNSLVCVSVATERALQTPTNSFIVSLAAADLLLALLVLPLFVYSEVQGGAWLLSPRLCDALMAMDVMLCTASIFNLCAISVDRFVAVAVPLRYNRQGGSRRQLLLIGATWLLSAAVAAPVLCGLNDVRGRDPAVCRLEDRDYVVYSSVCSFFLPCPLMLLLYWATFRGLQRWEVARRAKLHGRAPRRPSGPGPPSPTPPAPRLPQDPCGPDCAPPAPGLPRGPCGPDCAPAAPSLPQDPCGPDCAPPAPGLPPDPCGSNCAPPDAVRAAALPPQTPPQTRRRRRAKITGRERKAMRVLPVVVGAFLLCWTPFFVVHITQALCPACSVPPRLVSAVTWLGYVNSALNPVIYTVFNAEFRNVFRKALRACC

Test [3] concerns the target T4, 5-hydroxytryptamine receptor 2C (Homo sapiens, UniProt P28335).
T4 sequence (P28335 whole entry): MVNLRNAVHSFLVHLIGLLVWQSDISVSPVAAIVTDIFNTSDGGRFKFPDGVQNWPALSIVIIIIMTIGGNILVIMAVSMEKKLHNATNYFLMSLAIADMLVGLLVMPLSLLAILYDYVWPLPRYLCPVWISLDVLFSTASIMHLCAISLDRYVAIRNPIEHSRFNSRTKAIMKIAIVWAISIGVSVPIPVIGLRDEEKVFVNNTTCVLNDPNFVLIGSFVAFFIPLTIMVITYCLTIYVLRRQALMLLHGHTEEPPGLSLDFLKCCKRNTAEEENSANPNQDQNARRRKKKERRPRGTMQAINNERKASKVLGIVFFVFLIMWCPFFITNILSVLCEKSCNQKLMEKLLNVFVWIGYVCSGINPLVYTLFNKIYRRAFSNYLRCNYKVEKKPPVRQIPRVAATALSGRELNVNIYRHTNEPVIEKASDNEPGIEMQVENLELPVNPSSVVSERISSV

Test [4] deals with Sodium-dependent serotonin transporter (Homo sapiens, UniProt P31645).
Sodium-dependent serotonin transporter, sequence (P31645 whole entry): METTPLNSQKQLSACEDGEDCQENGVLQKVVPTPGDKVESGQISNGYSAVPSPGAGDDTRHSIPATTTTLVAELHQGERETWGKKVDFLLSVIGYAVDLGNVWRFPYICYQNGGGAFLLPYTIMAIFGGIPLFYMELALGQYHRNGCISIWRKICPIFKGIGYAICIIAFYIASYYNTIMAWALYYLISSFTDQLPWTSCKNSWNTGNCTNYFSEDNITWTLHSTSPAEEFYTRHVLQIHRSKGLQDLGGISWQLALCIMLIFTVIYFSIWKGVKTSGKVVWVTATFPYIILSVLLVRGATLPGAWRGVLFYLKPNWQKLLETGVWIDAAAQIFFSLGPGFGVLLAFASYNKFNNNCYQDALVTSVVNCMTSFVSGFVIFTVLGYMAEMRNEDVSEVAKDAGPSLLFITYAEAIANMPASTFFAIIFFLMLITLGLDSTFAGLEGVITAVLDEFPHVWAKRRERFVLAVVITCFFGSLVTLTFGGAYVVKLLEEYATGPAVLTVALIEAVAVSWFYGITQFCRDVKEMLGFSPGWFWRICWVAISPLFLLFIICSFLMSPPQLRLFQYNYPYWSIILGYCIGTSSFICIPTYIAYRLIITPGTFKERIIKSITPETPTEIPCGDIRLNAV
Description: Displacement of [3H]-citalopram from human SERT by liquid scintillation counting
Test [5] has as its target T5, D(3) dopamine receptor (Homo sapiens, UniProt P35462).
In test [6] the target is T6, 5-hydroxytryptamine receptor 1A (Homo sapiens, UniProt P08908).
T6 sequence (P08908 whole entry): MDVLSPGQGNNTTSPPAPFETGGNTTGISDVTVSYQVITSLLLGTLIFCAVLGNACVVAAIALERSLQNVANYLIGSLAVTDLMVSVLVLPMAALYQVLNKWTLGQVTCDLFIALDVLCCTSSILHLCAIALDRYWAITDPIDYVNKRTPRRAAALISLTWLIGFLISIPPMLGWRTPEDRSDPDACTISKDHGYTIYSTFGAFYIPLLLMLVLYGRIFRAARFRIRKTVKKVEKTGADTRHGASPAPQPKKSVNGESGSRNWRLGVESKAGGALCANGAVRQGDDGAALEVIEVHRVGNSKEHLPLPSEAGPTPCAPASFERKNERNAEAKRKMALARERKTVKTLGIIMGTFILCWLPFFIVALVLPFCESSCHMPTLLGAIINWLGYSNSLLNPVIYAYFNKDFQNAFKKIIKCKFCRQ

Test [7] addresses T7, 5-hydroxytryptamine receptor 7 (Homo sapiens, UniProt P34969).
Description: Displacement of [3H]-LSD from human 5HT7 receptor by liquid scintillation counting
The target of test [8] is T2, D(2) dopamine receptor. Kind of test: Displacement of [3H]-N-methylspiperone from human dopamine D2 receptor at 10 uM by liquid scintillation counting. In general terms: Loss of bound radioactivity is the signal in a displacement assay; it reports binding, not function.
Test [9] has as its target T8, 5-hydroxytryptamine receptor 2C (Homo sapiens) (UniProt P28335).
T8 sequence (whole entry): T4 sequence (P28335 whole entry)
In words: Displacement of [3H]-mesulergine from human 5HT2C receptor at 10 uM by liquid scintillation counting.

Test [10] concerns the target T5, D(3) dopamine receptor. In words: Displacement of [3H]-N-methylspiperone from human dopamine D3 receptor at 10 uM by liquid scintillation counting.
The target in test [11] is T1, 5-hydroxytryptamine receptor 2A. In words: Displacement of [3H]-mesulergine from human 5HT2A receptor at 10 uM by liquid scintillation counting.
Test [12] concerns the target T9, 5-hydroxytryptamine receptor 1A (Homo sapiens) (UniProt P08908).
T9 sequence (whole entry): T6 sequence (P08908 whole entry)
Kind of test: Displacement of [3H]-8-OH-DPAT from human 5HT1A receptor at 10 uM by liquid scintillation counting.

Test [13] concerns the target T7, 5-hydroxytryptamine receptor 7. In words: Displacement of [3H]-LSD from human 5HT7 receptor at 10 uM by liquid scintillation counting.

T5 sequence (P35462 whole entry): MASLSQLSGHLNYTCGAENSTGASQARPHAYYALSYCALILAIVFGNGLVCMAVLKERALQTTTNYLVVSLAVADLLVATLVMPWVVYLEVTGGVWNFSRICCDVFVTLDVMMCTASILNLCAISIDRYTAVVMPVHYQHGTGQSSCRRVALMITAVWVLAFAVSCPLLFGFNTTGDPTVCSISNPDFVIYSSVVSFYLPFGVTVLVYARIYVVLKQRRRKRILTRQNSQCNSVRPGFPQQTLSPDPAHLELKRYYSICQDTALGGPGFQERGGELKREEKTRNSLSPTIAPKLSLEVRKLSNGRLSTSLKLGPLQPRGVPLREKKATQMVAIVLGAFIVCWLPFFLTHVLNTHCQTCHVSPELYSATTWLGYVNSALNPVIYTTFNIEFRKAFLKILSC
T2 sequence (P14416 whole entry): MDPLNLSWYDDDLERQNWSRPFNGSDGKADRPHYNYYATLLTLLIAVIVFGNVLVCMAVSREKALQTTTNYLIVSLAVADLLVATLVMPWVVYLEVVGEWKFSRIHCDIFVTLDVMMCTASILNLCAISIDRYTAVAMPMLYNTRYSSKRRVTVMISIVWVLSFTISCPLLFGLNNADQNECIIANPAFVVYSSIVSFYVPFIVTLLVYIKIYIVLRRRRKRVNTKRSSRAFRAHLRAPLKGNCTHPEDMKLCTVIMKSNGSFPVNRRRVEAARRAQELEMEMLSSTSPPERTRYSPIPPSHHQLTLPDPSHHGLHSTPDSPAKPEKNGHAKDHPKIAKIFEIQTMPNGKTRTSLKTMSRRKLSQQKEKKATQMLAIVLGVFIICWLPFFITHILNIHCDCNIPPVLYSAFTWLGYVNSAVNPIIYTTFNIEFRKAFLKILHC
T1 sequence (P28223 whole entry): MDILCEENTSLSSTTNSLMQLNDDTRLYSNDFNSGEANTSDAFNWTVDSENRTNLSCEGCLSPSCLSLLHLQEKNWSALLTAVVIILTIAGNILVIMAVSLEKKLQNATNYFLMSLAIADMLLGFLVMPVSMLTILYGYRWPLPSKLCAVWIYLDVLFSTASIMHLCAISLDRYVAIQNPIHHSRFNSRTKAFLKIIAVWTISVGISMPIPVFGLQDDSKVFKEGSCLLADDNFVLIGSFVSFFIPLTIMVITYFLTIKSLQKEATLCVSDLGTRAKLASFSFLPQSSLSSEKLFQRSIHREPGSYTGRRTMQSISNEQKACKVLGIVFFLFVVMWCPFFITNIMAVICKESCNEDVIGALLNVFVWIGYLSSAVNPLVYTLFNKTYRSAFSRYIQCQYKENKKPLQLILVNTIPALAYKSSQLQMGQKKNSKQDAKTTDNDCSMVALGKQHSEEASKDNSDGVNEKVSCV
T7 sequence (P34969 whole entry): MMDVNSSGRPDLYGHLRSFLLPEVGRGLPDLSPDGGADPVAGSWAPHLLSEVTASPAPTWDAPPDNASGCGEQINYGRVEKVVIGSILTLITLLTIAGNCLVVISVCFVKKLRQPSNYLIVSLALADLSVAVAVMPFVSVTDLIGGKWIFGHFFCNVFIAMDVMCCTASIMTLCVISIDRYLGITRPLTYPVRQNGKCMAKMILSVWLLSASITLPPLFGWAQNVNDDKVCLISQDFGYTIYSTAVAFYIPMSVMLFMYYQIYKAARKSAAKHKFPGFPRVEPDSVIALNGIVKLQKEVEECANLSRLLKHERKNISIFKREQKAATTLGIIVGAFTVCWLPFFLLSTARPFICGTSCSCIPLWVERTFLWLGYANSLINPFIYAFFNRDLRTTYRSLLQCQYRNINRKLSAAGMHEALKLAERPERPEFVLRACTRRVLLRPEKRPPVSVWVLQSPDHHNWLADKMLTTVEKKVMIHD

Broadly, the Ki is a measure of affinity in units of concentration, obtained from inhibition or displacement. Low readings indicate tighter binding, high ones weaker binding. As for `Fc1ccc2c(c1)CC(CCN1CCCN(c3ccccn3)CC1)C2` (stereo not drawn), the Ki in test [1] worked out at 43 nM; on D(2) dopamine receptor [2], 599 nM; on D(4) dopamine receptor, 104 nM; in test [3] it was 963 nM; in test [4] it was 64 nM; at D(3) dopamine receptor [5], 774 nM. The Ki in test [6] was 615 nM and 589 nM; in test [7], 267 nM.
By inhibition is commonly meant the relative decrease from the control value, in per cent. Read a low inhibition as little suppression. In the case of `Fc1ccc(CCCCN2C3CCC2CN(c2ccc(Cl)cn2)C3)cc1`, the Ki came out at 94 nM in test [1]; 44 nM on D(4) dopamine receptor; 158 nM in [4]; 840 nM on D(3) dopamine receptor [5]; 94.2 nM in [6]; 339 nM in test [7]. Also, the inhibition (on D(2) dopamine receptor [8]; in [9]) was 50% each time.
As for `Fc1ccc(CCCCN2CCN(c3ccc(-c4ccccc4)cn3)CC2)cc1`, the Ki in test [1] is 147 nM; on D(2) dopamine receptor [2] it was above 10000 nM; at D(4) dopamine receptor, 2260 nM; in test [3], above 10000 nM; in test [4], 2670 nM; on D(3) dopamine receptor [5] it was 2090 nM. For the same molecule, the Ki is 1460 nM in test [6] and above 10000 nM in test [7].
For `O=C(CCCN1CCN(c2cccnc2)CC1)c1ccc(F)cc1`, the Ki in [1] is 305 nM; on D(2) dopamine receptor [2], 1170 nM; at D(4) dopamine receptor, 30 nM; at D(3) dopamine receptor [5], 140 nM; in test [6], 97 nM; in [7], 147 nM and 135 nM. Further, the inhibition in test [9] is 50%.
Regarding `Fc1ccc(CCCCN2CCN(c3ccccn3)CC2)cc1`, the inhibition in test [9] amounted to 50%.
On to `O=C1c2ccc(F)cc2CC1CCN1CCCN(c2ccccn2)CC1` (stereo not drawn), for which the Ki in [1] was 59 nM; at D(2) dopamine receptor [2], 649 nM; on D(4) dopamine receptor, 191 nM; in [4], 949 nM and 933 nM; on D(3) dopamine receptor [5] it was 2290 nM; in test [6], 886 nM. This molecule also had a Ki in test [7] of 58 nM. The same molecule came in with an inhibition in [9] of 50%.
In the case of `O=C1c2ccc(F)cc2CC1CCN1CCCN(c2ccc(Cl)cc2)CC1` (stereo not drawn), the Ki is 24 nM in test [4] and 72 nM in test [7].
On to `Fc1ccc(CCCCN2CCN(c3cccc(-c4ccccc4)n3)CC2)cc1`, for which the inhibition constant (Ki) was 261 nM in [1]; 641 nM at D(2) dopamine receptor [2]; 84 nM at D(4) dopamine receptor; 2960 nM in test [3]; above 10000 nM in test [4]; 58 nM at D(3) dopamine receptor [5]. The Ki is 155 nM in test [6] and 160 nM in [7].
Take `Fc1ccc(CCCCN2CCN(c3cccnc3)CC2)cc1`: the Ki in test [1] was 338 nM; on D(4) dopamine receptor, 16 nM; in test [6] it was 18 nM; in test [7], 267 nM. Also, the inhibition (at D(2) dopamine receptor [8]; in test [9]) was 50% each time.
`Cc1ccc(N2CCN(CCCCc3ccc(F)cc3)CC2)nc1`: the Ki in test [3] was found to be 1610 nM; in test [4], 2990 nM; in test [6] it was 92 nM; in test [7], 60 nM.
For the molecule `O=C(CCCN1C2CCC1CN(c1ccc(Cl)cn1)C2)c1ccc(F)cc1`, the Ki in [1] was 51 nM; on D(2) dopamine receptor [2] it was 1250 nM; at D(4) dopamine receptor it was 119 nM; in test [3], 1360 nM; in test [4] it was 241 nM; at D(3) dopamine receptor [5], 1010 nM. Also, the Ki came out at 78 nM in test [6] and 335 nM in test [7].
Take `Fc1ccc(CCCCN2CCN(c3ccncc3)CC2)cc1`: at D(4) dopamine receptor, the affinity, expressed as Ki, was 2050 nM. Also, the inhibition (at D(3) dopamine receptor [10]; on D(2) dopamine receptor [8]; in test [11]; in test [12]; in [13]; in test [9]) was 50% throughout.
On to `O=C(CCCN1CCCN(c2ccc(Cl)cn2)CC1)c1ccc(F)cc1`, for which the Ki is 8.9 nM in [1]; 41 nM at D(2) dopamine receptor [2]; 37 nM at D(4) dopamine receptor; 392 nM in [3]; 37 nM in test [4]; 26 nM on D(3) dopamine receptor [5]. Further, the Ki in test [6] amounted to 259 nM; in [7], 214 nM.
Consider `O=C1c2ccc(F)cc2CC1CCN1CCCN(c2ccc(Cl)cn2)CC1` (stereo not drawn), for which the Ki in [1] was 13 nM; on D(2) dopamine receptor [2] it was 364 nM; at D(4) dopamine receptor, 36 nM; in test [3], 355 nM; in test [4], 24 nM; on D(3) dopamine receptor [5], 125 nM. The Ki is 209 nM in [6] and 58 nM in test [7].
With `O=C(CCCN1CCCN(c2ccccn2)CC1)c1ccc(F)cc1`, the Ki was 1.2 nM in [1]; 181 nM on D(2) dopamine receptor [2]; 257 nM at D(4) dopamine receptor; 337 nM in test [3]; 3450 nM at D(3) dopamine receptor [5]; 1960 nM and 1910 nM in test [6]. Besides, the inhibition constant Ki in [7] is 569 nM and 1550 nM.
